Measurements taken from PMC3091354 (Journal of chromatography. B, Analytical technologies in …, 2011).
Values joined by “and” are separate entries in the source; they are usually repeats but may differ in a detail not shown here. Equal values may be shown once. Read-outs that look alike come from different tables or passages of the source.

How the values were obtained:
[1] = type: in vivo; settings: mouse; for Tmax / MRT inf: male, C57BL/6N, ip
cells = settings: all cells tested; cited from earlier work
[2] = type: in vivo; settings: mouse; for concentration at 1 week: male, C57BL/6N, oral; for Concentration in brain: 1 week
[3] = Stability of 3-MoSA in mouse brain homogenate to freezing; type: physicochemical; settings: storage 7 months at −80°C
[4] = single i.p. 200 mg/kg, plasma, 200 mg/kg

**Q.** What does the source list for `COc1cccc(CN)c1O` [3-MoSA, 3-methoxy-2-hydroxybenzylamine]?
**A.** Tmax ([1]; brain, 200 mg/kg): 15 min; MRT inf ([1]; heart, 200 mg/kg): 54 min; Tmax ([1]; heart, 200 mg/kg): 15 min; MRT inf ([1]; kidney, 200 mg/kg): 54 min; Tmax ([1]; kidney, 200 mg/kg): 30 min; MRT inf ([1]; liver, 200 mg/kg): 60 min; Tmax ([1]; liver, 200 mg/kg): 15 min; Tmax ([1]; plasma, 200 mg/kg): 30 min; MRT inf ([1]; spleen, 200 mg/kg): 60 min; Tmax ([1]; spleen, 200 mg/kg): 15 min; Time to distribution to heart, spleen, liver and kidneys after administration ([1]; single i.p. 200 mg/kg): 15 to 30 min; Time of maximum brain concentration (CBmax) ([1]; single i.p. 200 mg/kg, brain): 15 min; Cmax, brain ([1]; single i.p. 200 mg/kg, brain, 200 mg/kg): 1395 ± 207 µg/g and 1395.3 ± 207.0 µg/g; AUC (0-t), heart ([1]; single i.p. 200 mg/kg, heart): 546.7 ± 52.4 µg·h/g; AUC (0-t), kidney ([1]; single i.p. 200 mg/kg, kidney): 1981.6 ± 174.0 µg·h/g; Cmax, kidney ([1]; single i.p. 200 mg/kg, kidney): 1703.1 ± 146.1 µg/g; AUC (0-t), liver ([1]; single i.p. 200 mg/kg, liver): 540.4 ± 37.1 µg·h/g; Cmax, liver ([1]; single i.p. 200 mg/kg, liver): 880.4 ± 122.3 µg/g; Drug accumulation over time in organs ([1]; single i.p. 200 mg/kg, organs studied): no evidence of specific drug accumulation over time; AUC (0-t), plasma [1, 4]: 361.5 ± 41.6 µg·h/mL; CL/F (total body clearance) [1, 4]: 544.1 L/h/kg; Cmax, plasma [1, 4]: 342600 ± 56400 ng/mL; Elimination t1/2, plasma [1, 4]: 36 min; V/F (apparent volume of distribution, Vd/F) [1, 4]: 486.4 L/kg; AUC (0-t), spleen ([1]; single i.p. 200 mg/kg, spleen): 734.5 ± 60.7 µg·h/g; Time after injection up to which 3-MoSA was detectable in tissue ([1]; single i.p. 200 mg/kg, tissue): up to 4 h; Cytotoxicity (cells): not cytotoxic; concentration at 1 week ([2]; brain, 3 g/l, Concentration in brain, drink at 3 g/l): 18000 ng/g; concentration at 1 week ([2]; brain, 5 g/l, Concentration in brain, drink at 5 g/l): 25000 ng/g; concentration at 1 week ([2]; brain, 7 g/l, Concentration in brain, drink at 7 g/l): 38000 ng/g; concentration at 1 week ([2]; brain, 10 g/l, Concentration in brain, drink at 10 g/l): 82000 ng/g; concentration at 1 week ([2]; heart, 3 g/l, Concentration in heart, drink at 3 g/l): 23900 ± 6500 ng/g; concentration at 1 week ([2]; heart, 5 g/l, Concentration in heart, drink at 5 g/l): 46300 ± 6000 ng/g; concentration at 1 week ([2]; heart, 7 g/l, Concentration in heart, drink at 7 g/l): 53500 ± 8100 ng/g; concentration at 1 week ([2]; heart, 10 g/l, Concentration in heart, drink at 10 g/l): 60200 ± 8700 ng/g; concentration at 1 week ([2]; kidney, 3 g/l, Concentration in kidney, drink at 3 g/l): 91100 ± 16300 ng/g; concentration at 1 week ([2]; kidney, 5 g/l, Concentration in kidney, drink at 5 g/l): 155000 ± 20300 ng/g; concentration at 1 week ([2]; kidney, 7 g/l, Concentration in kidney, drink at 7 g/l): 210000 ± 13100 ng/g; concentration at 1 week ([2]; kidney, 10 g/l, Concentration in kidney, drink at 10 g/l): 212000 ± 17400 ng/g; concentration at 1 week ([2]; liver, 3 g/l, Concentration in liver, drink at 3 g/l): 74100 ± 11700 ng/g; concentration at 1 week ([2]; liver, 5 g/l, Concentration in liver, drink at 5 g/l): 204000 ± 22000 ng/g; concentration at 1 week ([2]; liver, 7 g/l, Concentration in liver, drink at 7 g/l): 252000 ± 24300 ng/g; concentration at 1 week ([2]; liver, 10 g/l, Concentration in liver, drink at 10 g/l): 259000 ± 26200 ng/g; concentration at 1 week ([2]; plasma, 3 g/l, Concentration in plasma, drink at 3 g/l): 4000 ± 1000 ng/mL; concentration at 1 week ([2]; plasma, 5 g/l, Concentration in plasma, drink at 5 g/l): 5400 ± 1100 ng/mL; concentration at 1 week ([2]; plasma, 7 g/l, Concentration in plasma, drink at 7 g/l): 10800 ± 1600 ng/mL; concentration at 1 week ([2]; plasma, 10 g/l, Concentration in plasma, drink at 10 g/l): 11500 ± 1200 ng/mL; concentration at 1 week ([2]; spleen, 3 g/l, Concentration in spleen, drink at 3 g/l): 46600 ± 7900 ng/g; concentration at 1 week ([2]; spleen, 5 g/l, Concentration in spleen, drink at 5 g/l): 82200 ± 7200 ng/g; concentration at 1 week ([2]; spleen, 7 g/l, Concentration in spleen, drink at 7 g/l): 185000 ± 11600 ng/g; concentration at 1 week ([2]; spleen, 10 g/l, Concentration in spleen, drink at 10 g/l): 192000 ± 23600 ng/g; Concentration in brain ([2]; drink at 3 g/l): 18.1 ± 4.4 µg of 3-MoSA/g of tissue; Concentration in brain ([2]; drink at 5 g/l): 24.7 ± 3.1 µg of 3-MoSA/g of tissue; Concentration in brain ([2]; drink at 7 g/l): 37.6 ± 0.8 µg of 3-MoSA/g of tissue; Concentration in brain ([2]; drink at 10 g/l): 82.3 ± 24.5 µg of 3-MoSA/g of tissue; Stability: fraction recovered after storage [3]: 77% and 76.87%
